Measurements published in patent US9012659B2, “3-(indolyl)- or 3-(azaindolyl)-4-arylmaleimide compounds and their use in tumor treatment” (Johannes Gutenberg—Universitat Mainz, priority 2009, dated 2015).

Key:
[1] = tested on: HT-29 human colon adenocarcinoma cells; experiment: Evaluation of antiproliferative effect (MTT assay); assay type: cell-based; settings: 72 h, treatment for 3 days, untreated HT-29 cells: 100%, read-out: Decrease of HT-29 colon cancer cell viability (%)
Experimental: Cell suspensions (200 μl) containing 10,000 viable cells were plated into each well and incubated over night before exposure with various concentrations of agents. Cells were then incubated with 100 μl of different concentrations of compounds for 3 days at 37° C. with 5% CO2. At the end of the time point (3 days), 10 μl/well of MTT stock solution (5 mg/ml) (Biomol, Germany) were added. […] Each experiment was done in triplicate. […]
The antitumor efficacy of the compounds of the invention was examined against HT-29 human colon adenocarcinoma cells. […] The compound of example 1 of WO 2006/061212 was used as comparative compound.

human HT-29 cancer cells = experiment: Nicoletti apoptosis assay by cell cycle analysis (sub-G1 fraction); assay type: cell-based; settings: combination: compound plus Irinotecan 1.18 μM, agent-free control 3.4 ± 0.9%
Experimental: Cancer cells were transferred to 12-well flat-bottomed plates. Cell suspensions (1 ml) containing 1.5×10^5 viable cells were plated into each well and incubated over night before exposure with various concentrations of agents. Cells were then incubated in 1 ml medium with various concentrations of single applied moguntinones, irinotecan alone, or with the combinations of moguntinones with irinotecan or topotecan at 37° C. with 5% CO2.
After incubation cells were washed with PBS, trypsinizated, palleted and mixed with propidium-iodide-buffer (containing 0.1% sodium citrate, 0.1% triton X-100, […] propidium-iodide) and incubated for 1 hour at 4° C. Cell cycle sub-G1-fraction analysis was performed as described previously^23 using a FACS cytometer (BD FACS Calibur™, BD Biosciences, Heidelberg, Germany). Each experiment was done in triplicate.
All cells were maintained at 37° C. in an incubator under an atmosphere containing 5% CO2. After incubation the cells were washed with PBS, trypsinized, pelleted and mixed with PI buffer (containing 0.1% sodium citrate, 0.1% triton X-100, […] propidium iodide (PI)) and incubated for 1 hour at 4° C. Cell cycle sub-G1 fraction analysis was performed as described previously (Nicoletti, I. et al. (1991) J. Immunol. Methods 139, 271-279) using a flow cytometer (BD FACS Calibur™, BD Biosciences, Heidelberg, Germany). […]

| melting point [°C] | SMILES | viability at 2.6 µM [1] [%] | viability at 7.9 µM [1] [%] | viability at 26 µM [1] [%] | viability at 52 µM [1] [%] | Induction of apoptosis, combination compound plus irinotecan (human HT-29 cancer cells) [%] |
| --- | --- | --- | --- | --- | --- | --- |
| 274 to 275 | COc1cc(C2=C(c3c[nH]c4cccnc34)C(=O)NC2=O)cc(OC)c1OC [Example 12, 3-(4-Azaindol-3-yl)-4-(3,4,5-trimethoxyphenyl)-1H-pyrrol-2,5-dione] | – | – | – | – | – |
| 225 to 226 | COc1cc(C2=C(c3cn(CCCN4CCN(C)CC4)c4ccccc34)C(=O)NC2=O)cc(OC)c1OC [Example 9, 3-{1-[3-(4-Methylhexahydro-1-pyrazindiylium)propyl]-1H-indol-3-yl}-4-(3,4,5-trimethoxyphenyl)-maleinimide dichloride] | 66.5 ± 3.1 | 49.9 ± 1.32 | 22.6 ± 1.16 | 15.3 ± 1.21 | – |
| 232 to 233 | COc1cc(C2=C(c3c[nH]c4ccc(F)cc34)C(=O)NC2=O)cc(OC)c1OC [Example 10, 3-(5-Fluoro-1H-indol-3-yl)-4-(3,4,5-trimethoxyphenyl)-maleinimide] | – | – | – | – | – |
| 259 to 262 | COc1cc(C2=C(c3c[nH]c4ccc(Br)cc34)C(=O)NC2=O)cc(OC)c1OC [Example 11, 3-(5-Bromo-1H-indol-3-yl)-4-(3,4,5-trimethoxyphenyl)-maleinimide] | – | – | – | – | – |

Second part, the molecule before the results:

| SMILES | melting point [°C] | viability at 2.6 µM [1] [%] | viability at 7.9 µM [1] [%] | viability at 26 µM [1] [%] | viability at 52 µM [1] [%] | Induction of apoptosis, combination compound plus irinotecan (human HT-29 cancer cells) [%] |
| --- | --- | --- | --- | --- | --- | --- |
| COc1cc(C2=C(c3cn(CCCN(C)C)c4ccccc34)C(=O)NC2=O)cc(OC)c1OC [Example 6, 3-{1-[3-(Dimethylamino)propyl]-1H-indol-3-yl}-4-(3,4,5-trimethoxyphenyl)maleinimide] | 187 to 188 | 39.3 ± 2.6 | 38.5 ± 2.43 | 15.8 ± 1.35 | 19.4 ± 1.32 | – |
| COc1cc(C2=C(c3cn(CCN4CCCCC4)c4ccccc34)C(=O)NC2=O)cc(OC)c1OC [Example 7, 3-{1-[2-(Piperidin-1-yl)ethyl]-1H-indol-3-yl}-4-(3,4,5-trimethoxyphenyl)-maleinimide] | 179 to 180 | 86.5 ± 2.16 | 56.9 ± 3.02 | 20.1 ± 1.36 | 24.3 ± 0.98 | – |
| COc1cc(C2=C(c3cn(CCCO)c4ccccc34)C(=O)NC2=O)cc(OC)c1OC [Example 4, 3-(1-[3-Hydroxypropyl]-1H-indol-3-yl)-4-(3,4,5-trimethoxyphenyl)-maleinimide] | 160 | 37.9 ± 1.3 | 34.7 ± 0.78 | 27.7 ± 1.23 | 25.4 ± 2.26 | – |
| COc1cc(C2=C(c3cn(CCN4CCOCC4)c4ccccc34)C(=O)NC2=O)cc(OC)c1OC [Example 8, 3-{1-(2-Morpholinoethyl)-1H-indol-3-yl}-4-(3,4,5-trimethoxyphenyl)-maleinimide] | 238 to 239 | 81.1 ± 2.99 | 84.1 ± 2.18 | 53.39 ± 0.1 | 39.3 ± 1.31 | – |
| COc1cc(C2=C(c3cn(CCO)c4ccccc34)C(=O)NC2=O)cc(OC)c1OC [Example 3, 3-(1-[2-Hydroxyethyl]-1H-indol-3-yl)-4-(3,4,5-trimethoxyphenyl)-maleinimide] | 195 to 196 | 68.8 ± 2.48 | 70.2 ± 3.72 | 45.7 ± 2.18 | 28.7 ± 0.55 | – |
| COc1cc(C2=C(c3cn(CCCN)c4ccccc34)C(=O)NC2=O)cc(OC)c1OC.Cl [Example 2, 3-(1-[3-Ammoniopropyl]-1H-indol-3-yl)-4-(3,4,5-trimethoxyphenyl)-maleinimide-chloride] | 274 to 275 | 45.8 ± 3.25 | 36.4 ± 1.77 | 17.65 ± 0.13 | 6.68 ± 0.29 | – |
| COc1cc(C2=C(c3cn(CCN)c4ccccc34)C(=O)NC2=O)cc(OC)c1OC.Cl [Example 1, 3-(1-[2-Ammonioethyl]-1H-indol-3-yl)-4-(3,4,5-trimethoxyphenyl)-maleinimide-chloride] | 277.1 | 32.3 ± 1.07 | 29.3 ± 2.09 | 12.5 ± 0.39 | 8.95 ± 0.65 | 51.00 ± 0.56 |
| COc1cc(C2=C(c3cn(CCN(C)C)c4ccccc34)C(=O)NC2=O)cc(OC)c1OC [Example 5, 3-{1-[2-(Dimethylamino)ethyl]-1H-indol-3-yl}-4-(3,4,5-trimethoxyphenyl)-maleinimide] | 184 to 185 | 68.5 ± 8.69 | 52.6 ± 0.53 | 32.2 ± 0.9 | 15 ± 0.9 | – |
